{
  "source": "patent US8912121B2",
  "about": "“Herbicidal compositions comprising 4-amino-3-chloro-5-fluoro-6-(4-chloro-2-fluoro-3-methoxyphenyl)pyridine-2-carboxylic acid or a derivative thereof and certain PS II inhibitors” (Dow Agrosciences LLC, priority 2012, dated 2014)",
  "key": {"[1]": {"test_system": "ABUTH (Abutilon theophrasti, velvetleaf)", "assay": "Pre-emergence soil-applied mixtures, greenhouse", "type": "in vivo, Abutilon theophrasti Medik.", "excerpt": "(§1) Seeds or nutlets of the desired test plant species were planted in a soil matrix prepared by mixing a loam soil (32 percent silt, 23 percent clay, and 45 percent sand, with a pH of about 6.5 and an organic matter content of about 1.9 percent) and calcareous grit in an 80 to 20 ratio. The soil matrix was contained in plastic pots with a volume of 1 quart and a surface area of 83.6 square centimeters (cm^2).\n(§2) Treatments consisted of the benzyl ester of 4-amino-3-chloro-5-fluoro-6-(4-chloro-2-fluoro-3-methoxy-phenyl)pyridine-2-carboxylic acid (compound A) formulated as an SC (suspension concentrate) and various herbicidal components alone and in combination. Forms of compound A were applied on an acid equivalent basis.\n(§3) Other herbicidal components were applied on an acid equivalent or active ingredient basis and included the PSII-inhibiting herbicides, atrazine formulated as Atrazine® 90WDG, metribuzin formulated as Metribuzin 75DF, simazine formulated as Princep Caliber 90, tebuthiuron formulated as Spike 80DF, cyanazine (technical grade material), hexazinone (technical grade material), linuron (technical grade material), terbuthylazine (technical grade material), and diuron formulated as Diuron 4L.\n(§4) Treatment requirements were calculated based upon the rates being tested, the concentration of active ingredient or acid equivalent in the formulation, and a 12 mL application volume at a rate of 187 L/ha.\n(§5) For treatments comprised of formulated compounds, measured amounts of compounds were placed individually in 25 mL glass vials and diluted in a volume of 1.25% (v/v) Agri-Dex® crop oil concentrate (COC) to obtain 12× stock solutions. […] Application solutions were prepared by adding an appropriate amount of each stock solution (e.g., 1 mL) and diluted to the appropriate final concentrations with the addition of 10 mL of an aqueous mixture of 1.25% (v/v) COC so that the final spray solutions contained 1.25% (v/v) COC.\n(§6) For treatments comprised of technical compounds, weighed amounts can be placed individually in 25 mL glass vials and dissolved in a volume of 97:3 (v/v) acetone/DMSO to obtain 12× stock solutions. […] Application solutions can be prepared by adding an appropriate amount of each stock solution (e.g., 1 mL) and diluted to the appropriate final concentrations with the addition of 10 mL of an aqueous mixture of 1.5% (v/v) COC so that the final spray solutions contain 1.25% (v/v) COC. When technical materials are used, the concentrated stock solutions can be added to the spray solutions so that the final acetone and DMSO concentrations of the application solutions are 16.2% and 0.5%, respectively.\nFor treatments comprised of formulated and technical compounds, weighed amounts of the technical materials can be placed individually in 25 mL glass vials and dissolved in a volume of 97:3 (v/v) acetone/DMSO to obtain 12× stock solutions, and measured amounts of the formulated compounds can be placed individually in 25 mL glass vials and diluted in a volume of 1.5% (v/v) COC or water to obtain 12× stock solutions. […] Application solutions can be prepared by adding an appropriate amount of each stock solution (e.g., 1 mL) and diluted to the appropriate final concentrations with the addition of an appropriate amount of an aqueous mixture of 1.5% (v/v) COC so that the final spray solutions contain 1.25% (v/v) COC. […]"}, "[2]": {"test_system": "SETFA (Setaria faberi, giant foxtail)", "assay": "Pre-emergence soil-applied mixtures, greenhouse", "type": "in vivo, Setaria faberi Herrm.", "settings": "for Visual Weed Control (%) Obs: 27 DAA", "excerpt": "as §1, §2, §3, §4, §5, §6\nFor treatments comprised of formulated and technical compounds, weighed amounts of the technical materials can be placed individually in 25 mL glass vials and dissolved in a volume of 97:3 (v/v) acetone/DMSO to obtain 12× stock solutions, and measured amounts of the formulated compounds can be placed individually in 25 mL glass vials and diluted in a volume of 1.5% (v/v) COC or water to obtain 12× stock solutions. […] Application solutions can be prepared by adding an appropriate amount of each stock solution (e.g., 1 mL) and diluted to the appropriate final concentrations with the addition of an appropriate amount of an aqueous mixture of 1.5% (v/v) COC so that the final spray solutions contain 1.25% (v/v) COC. As required, additional water and/or 97:3 (v/v) acetone/DMSO can be added to individual application solutions so that the final acetone and DMSO concentrations of the application solutions being compared are 8.1% and 0.25%, respectively.\nAll stock solutions and applications solutions were visually inspected for compound compatibility prior to application. Spray solutions were applied to the soil with an overhead Mandel track sprayer equipped with a 8002E nozzles calibrated to deliver 187 L/ha over an application area of 0.503 m^2 at a spray height of 18 inches (46 cm) above average pot height. […]"}, "[3]": {"test_system": "GALAP (Galium aparine, catchweed bedstraw)", "assay": "Postemergence herbicidal activity of mixtures in cereal crops, greenhouse", "type": "in vivo, Galium aparine L.", "description": "Seeds of the desired test plant species were planted in Sun Gro MetroMix® 306 planting mixture, which typically has a pH of 6.0 to 6.8 and an organic matter content of about 30 percent, in plastic pots with a surface area of 103.2 square centimeters (cm^2). When required to ensure good germination and healthy plants, a fungicide treatment and/or other chemical or physical treatment was applied. The plants were grown for 7-36 days in a greenhouse with an approximate 14 hour photoperiod which was maintained at about 18° C. during the day and about 17° C. during the night. Nutrients and water were added on a regular basis and supplemental lighting was provided with overhead metal halide 1000-Watt lamps as necessary. The plants were employed for testing when they reached the second or third true leaf stage.\nTreatments consisted of the benzyl ester of 4-amino-3-chloro-5-fluoro-6-(4-chloro-2-fluoro-3-methoxy-phenyl)pyridine-2-carboxylic acid (Compound A), formulated as an SC, a second cereal herbicide alone and then both in combination.\nOther herbicidal components were applied on an active ingredient basis and included PSII-inhibiting herbicides.\nMeasured aliquots of benzyl ester of 4-amino-3-chloro-5-fluoro-6-(4-chloro-2-fluoro-3-methoxy-phenyl)pyridine-2-carboxylic acid (Compound A) were placed in 25 milliliter (mL) glass vials and diluted in a volume of 1.25% (v/v) Agri-Dex® crop oil concentrate to obtain stock solutions. Compound requirements are based upon a 12 mL application volume at a rate of 187 liters per hectare (L/ha). Spray solutions of the second cereal herbicide and experimental compound mixtures were prepared by adding the stock solutions to the appropriate amount of dilution solution to form 12 mL spray solution with active ingredients in two- and three-way combinations. Formulated compounds were applied to the plant material with an overhead Mandel track sprayer equipped with an 8002E nozzle calibrated to deliver 187 L/ha over an application area of 0.503 square meters (m^2) at a spray height of 18 inches (46 cm) above average plant canopy. Control plants were sprayed in the same manner with the solvent blank.\nThe treated plants and control plants were placed in a greenhouse as described above and watered by sub-irrigation to prevent wash-off of the test compounds. After 20-22 days, the condition of the test plants as compared with that of the control plants was determined visually and scored on a scale of 0 to 100 percent where 0 corresponds to no injury and 100 corresponds to complete kill.\nColby's equation was used to determine the herbicidal effects expected from the mixtures (Colby, S. R. 1967. Calculation of the synergistic and antagonistic response of herbicide combinations. Weeds 15:20-22).\nThe following equation was used to calculate the expected activity of mixtures containing two active ingredients, A and B: Expected=A+B−(A×B/100)"}, "[4]": {"settings": "Compound A Benzyl Ester 16 g ae/ha"}, "[5]": {"settings": "Compound A Benzyl Ester 32 g ae/ha"}},
  "data": [
    {"compound": "COc1c(Cl)ccc(-c2nc(C(=O)OCc3ccccc3)c(Cl)c(N)c2F)c1F", "note": "[Compound A Benzyl Ester, benzyl ester of 4-amino-3-chloro-5-fluoro-6-(4-chloro-2-fluoro-3-methoxy-phenyl)pyridine-2-carboxylic acid]", "values": [
      {"measurement": "Visual Weed Control (%)-29 DAA ABUTH Obs", "setting": "[1]; [4]", "value": 65, "unit": "%"},
      {"measurement": "Visual Weed Control (%)-29 DAA ABUTH Obs", "setting": "[1]; [5]", "value": 93, "unit": "%"},
      {"measurement": "Visual Weed Control (%) Obs", "setting": "[2]; 16 g ae/ha", "value": 8, "unit": "%"},
      {"measurement": "Visual Weed Control (%) Obs", "setting": "[2]; 32 g ae/ha", "value": 15, "unit": "%"},
      {"measurement": "Visual Weed Control (%)-29 DAA SETFA Obs", "setting": "[2]; [4]", "value": 0, "unit": "%"},
      {"measurement": "Visual Weed Control (%)-29 DAA SETFA Obs", "setting": "[2]; [5]", "value": 0, "unit": "%"},
      {"measurement": "Visual Weed Control (%) - 21 DAA GALAP Obs", "setting": "[3]; Compound A Benzyl Ester 5 g ai/ha", "value": 66, "unit": "%"},
      {"measurement": "Visual Weed Control (%) - 21 DAA GALAP Obs", "setting": "[3]; Compound A Benzyl Ester 10 g ai/ha", "value": 77, "unit": "%"}
    ]}
  ]
}
